From US20190337889A1, “COMPOSITIONS AND METHODS OF REGULATING CANCER RELATED DISORDERS AND DISEASES” (ONCO THERAPIES LLC, priority 2016, published 2019)

Key:
HepG2 cells [1] = experiment: XTT cell death assay, HepG2 hepatocarcinoma cells; assay type: cell-based, human; details: Homo sapiens, HepG2, *Greater than 50% inhibition, dilutions 0.01 nM to 200 μM, usually 24 or 48 hours, read-out: HepG2* (liver cancer): concentration with greater than 50% inhibition
Procedure: Maintenance and Treatment of Cell Lines. Human HepG2 hepatocarcinoma cells and human U87MG glioma cells (ATCC, Manassas, Va.) were maintained in EMEM medium supplemented with 10% FBS (Hyclone, Logan, Utah). The human 1321N1 astrocytoma cells (European Collection of Cell Cultures, Sigma-Aldrich) were cultured in Dulbecco's modified Eagle's medium supplemented with 10% FBS and 2 mM L-glutamine. Human prostate carcinoma cell line PC3 was cultured in F-12K medium (Life Technologies) supplemented 10% FBS. Human lung carcinoma cell line A549 was cultured in DMEM+2 mM glutamine+10% FBS. ER positive, estrogen independent for growth MCF7/LCC9 cell line was cultured in IMEM (Biofluids) supplemented with 5% charcoal stripped calf serum. Medulloblastoma cell line DAOY was cultured in Eagle's MEM supplemented with 10% FBS.
(§1) Cell death assay. The extent of cell death and toxicity of the compounds was tested by XTT assay. The cells were plated in their respective media in 96-well plates. The compounds and were added in dilutions ranging from 0.01 nM to 200 μM and for control DMSO to 1% was used. […] For XTT assay first the medium in the wells was replaced with 200 μs of fresh phenol-red free medium. Then 50 μls of XTT solution with PMS was added to the wells. The XTT solution was made adding 0.02% phenazine methosulfate (Sigma-Aldrich #P9625) to 1 mg/ml XTT sodium salt made up in phenol-red free RPMI (Sigma-Aldrich #X4636).

PC3 cells = experiment: XTT cell death assay, PC3 prostate carcinoma cells; assay type: cell-based; details: Homo sapiens, PC-3, # = 200 uM not tested, read-out: PC3: concentration with effect on cancer cells
Procedure: (§2) Maintenance and Treatment of Cell Lines. Human HepG2 hepatocarcinoma cells and human U87MG glioma cells (ATCC, Manassas, Va.) were maintained in EMEM medium supplemented with 10% FBS (Hyclone, Logan, Utah). The human 1321N1 astrocytoma cells (European Collection of Cell Cultures, Sigma-Aldrich) were cultured in Dulbecco's modified Eagle's medium supplemented with 10% FBS and 2 mM L-glutamine. Human prostate carcinoma cell line PC3 was cultured in F-12K medium (Life Technologies) supplemented 10% FBS. Human lung carcinoma cell line A549 was cultured in DMEM+2 mM glutamine+10% FBS. ER positive, estrogen independent for growth MCF7/LCC9 cell line was cultured in IMEM (Biofluids) supplemented with 5% charcoal stripped calf serum. Medulloblastoma cell line DAOY was cultured in Eagle's MEM supplemented with 10% FBS. All cell lines except […] were cultured at 37° C. in 5% CO2, and the medium was replaced every 2-3 days. MDA-MB-231 was grown in Leibovitz's L-15 medium with 10% FBS without CO2 supplementation.
as §1, with “#X4636). The plate was incubated for 4 hours at 37° C. and then the absorbance was read at a wavelength of 490 nm.” for “#X4636).”

A549 = experiment: XTT cell death assay, A549 lung carcinoma cells; assay type: cell-based; details: Homo sapiens, # = 200 uM not tested, read-out: A549: concentration with effect on cancer cells
Procedure: as §2
as §1, with “#X4636). The plate was incubated for 4 hours at 37° C. and then the absorbance was read at a wavelength of 490 nm.” for “#X4636).”

MCF7/LCC9 cell line = experiment: XTT cell death assay, MCF7/LCC9 cells; assay type: cell-based; details: Homo sapiens, # = 200 uM not tested, read-out: LCC-9: concentration with effect on cancer cells
Procedure: as §2
as §1, with “#X4636). The plate was incubated for 4 hours at 37° C. and then the absorbance was read at a wavelength of 490 nm.” for “#X4636).”

DAOY = experiment: XTT cell death assay, DAOY medulloblastoma cells; assay type: cell-based; details: Homo sapiens, # = 200 uM not tested, read-out: DAOY: concentration with effect on cancer cells
Procedure: as §2
as §1, with “#X4636). The plate was incubated for 4 hours at 37° C. and then the absorbance was read at a wavelength of 490 nm.” for “#X4636).”

A549 xenograft = experiment: Zebrafish xenograft assay with implanted A549 cells; assay type: in vivo; details: zebrafish embryos, 100 uM, 4 days after implantation, n=10 to 15
Procedure: Zebrafish xenograft assay. Zebrafish embryos with implanted A549 cells were imaged within 6 hours of cell injection (day 0) and treated with compounds. At 4 days post injection (day 4) the embryos were imaged again. The area of fluorescence due to the labeled cells was measured using Image J at day 0 (area 0) and day 4 (area 4). The change in area was calculated by subtracting area 0 from area 4 (=d area). D area was then normalized for the size of the initial tumor by dividing d area by area 0 (=d area/area 0).

tumor cells = experiment: Effect on the growth of a variety of tumor cells (summary of Table 1); assay type: cell-based; details: IC50 value of less than 100 μM was considered active
Procedure: as §2
Cell death assay. The extent of cell death and toxicity of the compounds was tested by XTT assay. The cells were plated in their respective media in 96-well plates. […] The plate was incubated for 4 hours at 37° C. and then the absorbance was read at a wavelength of 490 nm.
The effect of NT015 and NT016 on the growth of a variety of tumor cells was evaluated. […]

HepG2 cells [2] = experiment: Caspase assay (Caspase-Glo 3/7) on HepG2 cells; assay type: cell-based, human; details: 48 hours after addition, 100 uM, n=4
Procedure: Caspase Assay. Caspase assay was conducted by using the Promega Caspase-Glo 3/7 kit. 100 ul of caspase-Glo 3/7 reagent was added to each well of a white walled 96-well plate containing 100 ul of blank, negative control cells or treated cells in culture medium. The contents of the wells were mixed gently and incubated at room temperature for 30 minutes to 3 hours. The luminescence of each sample was read in a luminometer.

Compound	minimal effective concentration (HepG2 cells [1]) [µM]	minimal effective concentration (PC3 cells) [µM]	minimal effective concentration (A549) [µM]	minimal effective concentration (MCF7/LCC9 cell line) [µM]	minimal effective concentration (DAOY) [µM]	area of A549 xenograft implant (A549 xenograft)	inhibition of liver, lung, breast, prostate and CNS cancer cell growth (tumor cells)	caspase activity (fluorescence ratio to untreated cells) (HepG2 cells [2])
CC(Cc1cccc2ccccc12)NCCc1ccc(O)cc1 (stereo not drawn) [NT016, 4-(2-((1-(naphthalen-1-yl)propan-2-yl)amino)ethyl)phenol]	100	200	100	100	100	efficacy of reducing the area of xenograft significantly	potent inhibitors	
CC(N)Cc1ccc2ccccc2c1 (stereo not drawn) [NT015, 1-(naphthalen-2-yl)propan-2-amine]							potent inhibitors	increase in caspase activity
